Source: the supplement of paper PMC8671470

System: Mono-Mac-6
Assay: cell viability (% survival relative to DMSO control); higher = less cytotoxic
Settings: drug1 concentration 5 nM; drug2 concentration 100 nM; 72 h
Description: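 8x8 drug-combination matrices (0–5000 nM; rosiglitazone and lestaurtinib 0–1000 nM) were run in Mono-Mac-6 cells for 72 h with CellTiter-Glo read-out. Survival is normalised to DMSO and 10 µM bortezomib and clipped at 100%.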

Structure (SMILES)	cell viability
O=C(C1CC1)N1CC[C@@H](C=C2NNC(=O)N2c2ccc(-c3ccc4occc4c3)cc2)C1 + CS(=O)(=O)N1CCN(Cc2cc3nc(-c4cccc5[nH]ncc45)nc(N4CCOCC4)c3s2)CC1 [Pictilisib]	63%
O=C(C1CC1)N1CC[C@@H](C=C2NNC(=O)N2c2ccc(-c3ccc4occc4c3)cc2)C1 + C[C@H](NC(=O)c1sccc1OCc1ccc(Cl)cc1)c1ccccc1 [as1949490]	90%
O=C(C1CC1)N1CC[C@@H](C=C2NNC(=O)N2c2ccc(-c3ccc4occc4c3)cc2)C1 + O=C(c1c2ccccc2cc2ccccc12)N1CCC(N2CCC[C@@H](C(=O)N3CCOCC3)C2)CC1 [CP-640186]	87.7%
CC(C)c1onc(-c2c(Cl)cccc2Cl)c1COc1ccc(/C=C/c2cccc(C(=O)O)c2)c(Cl)c1 [GW4064] + Cn1cc(-c2ccncc2)c(-c2ccc(OCc3ccc4ccccc4n3)cc2)n1 [PF-02545920]	> 100%

Same assay, conditions: drug1 concentration 5 nM; drug2 concentration 500 nM; 72 h

Structure (SMILES)	cell viability
O=C(C1CC1)N1CC[C@@H](C=C2NNC(=O)N2c2ccc(-c3ccc4occc4c3)cc2)C1 + CS(=O)(=O)N1CCN(Cc2cc3nc(-c4cccc5[nH]ncc45)nc(N4CCOCC4)c3s2)CC1 [Pictilisib]	70%
O=C(C1CC1)N1CC[C@@H](C=C2NNC(=O)N2c2ccc(-c3ccc4occc4c3)cc2)C1 + C[C@H](NC(=O)c1sccc1OCc1ccc(Cl)cc1)c1ccccc1 [as1949490]	90.5%
O=C(C1CC1)N1CC[C@@H](C=C2NNC(=O)N2c2ccc(-c3ccc4occc4c3)cc2)C1 + O=C(c1c2ccccc2cc2ccccc12)N1CCC(N2CCC[C@@H](C(=O)N3CCOCC3)C2)CC1 [CP-640186]	95.2%
CC(C)c1onc(-c2c(Cl)cccc2Cl)c1COc1ccc(/C=C/c2cccc(C(=O)O)c2)c(Cl)c1 [GW4064] + Cn1cc(-c2ccncc2)c(-c2ccc(OCc3ccc4ccccc4n3)cc2)n1 [PF-02545920]	81.2%

Same assay, conditions: drug1 concentration 5 nM; drug2 concentration 1000 nM; 72 h

Structure (SMILES)	cell viability
O=C(C1CC1)N1CC[C@@H](C=C2NNC(=O)N2c2ccc(-c3ccc4occc4c3)cc2)C1 + CS(=O)(=O)N1CCN(Cc2cc3nc(-c4cccc5[nH]ncc45)nc(N4CCOCC4)c3s2)CC1 [Pictilisib]	53.7%
O=C(C1CC1)N1CC[C@@H](C=C2NNC(=O)N2c2ccc(-c3ccc4occc4c3)cc2)C1 + C[C@H](NC(=O)c1sccc1OCc1ccc(Cl)cc1)c1ccccc1 [as1949490]	95%
O=C(C1CC1)N1CC[C@@H](C=C2NNC(=O)N2c2ccc(-c3ccc4occc4c3)cc2)C1 + O=C(c1c2ccccc2cc2ccccc12)N1CCC(N2CCC[C@@H](C(=O)N3CCOCC3)C2)CC1 [CP-640186]	88.8%
CC(C)c1onc(-c2c(Cl)cccc2Cl)c1COc1ccc(/C=C/c2cccc(C(=O)O)c2)c(Cl)c1 [GW4064] + Cn1cc(-c2ccncc2)c(-c2ccc(OCc3ccc4ccccc4n3)cc2)n1 [PF-02545920]	93.3%

Same assay, conditions: drug1 concentration 5 nM; drug2 concentration 5000 nM; 72 h

Structure (SMILES)	cell viability
O=C(C1CC1)N1CC[C@@H](C=C2NNC(=O)N2c2ccc(-c3ccc4occc4c3)cc2)C1 + CS(=O)(=O)N1CCN(Cc2cc3nc(-c4cccc5[nH]ncc45)nc(N4CCOCC4)c3s2)CC1 [Pictilisib]	51.6%
O=C(C1CC1)N1CC[C@@H](C=C2NNC(=O)N2c2ccc(-c3ccc4occc4c3)cc2)C1 + C[C@H](NC(=O)c1sccc1OCc1ccc(Cl)cc1)c1ccccc1 [as1949490]	79%
O=C(C1CC1)N1CC[C@@H](C=C2NNC(=O)N2c2ccc(-c3ccc4occc4c3)cc2)C1 + O=C(c1c2ccccc2cc2ccccc12)N1CCC(N2CCC[C@@H](C(=O)N3CCOCC3)C2)CC1 [CP-640186]	> 100%
CC(C)c1onc(-c2c(Cl)cccc2Cl)c1COc1ccc(/C=C/c2cccc(C(=O)O)c2)c(Cl)c1 [GW4064] + Cn1cc(-c2ccncc2)c(-c2ccc(OCc3ccc4ccccc4n3)cc2)n1 [PF-02545920]	74.5%

Same assay, conditions: drug1 concentration 10 nM; drug2 concentration 5 nM; 72 h

Structure (SMILES)	cell viability
O=C(C1CC1)N1CC[C@@H](C=C2NNC(=O)N2c2ccc(-c3ccc4occc4c3)cc2)C1 + CS(=O)(=O)N1CCN(Cc2cc3nc(-c4cccc5[nH]ncc45)nc(N4CCOCC4)c3s2)CC1 [Pictilisib]	94.2%
O=C(C1CC1)N1CC[C@@H](C=C2NNC(=O)N2c2ccc(-c3ccc4occc4c3)cc2)C1 + C[C@H](NC(=O)c1sccc1OCc1ccc(Cl)cc1)c1ccccc1 [as1949490]	> 100%
O=C(C1CC1)N1CC[C@@H](C=C2NNC(=O)N2c2ccc(-c3ccc4occc4c3)cc2)C1 + O=C(c1c2ccccc2cc2ccccc12)N1CCC(N2CCC[C@@H](C(=O)N3CCOCC3)C2)CC1 [CP-640186]	> 100%
CC(C)c1onc(-c2c(Cl)cccc2Cl)c1COc1ccc(/C=C/c2cccc(C(=O)O)c2)c(Cl)c1 [GW4064] + Cn1cc(-c2ccncc2)c(-c2ccc(OCc3ccc4ccccc4n3)cc2)n1 [PF-02545920]	> 100%

Same assay, conditions: drug1 concentration 10 nM; drug2 concentration 10 nM; 72 h

Structure (SMILES)	cell viability
O=C(C1CC1)N1CC[C@@H](C=C2NNC(=O)N2c2ccc(-c3ccc4occc4c3)cc2)C1 + CS(=O)(=O)N1CCN(Cc2cc3nc(-c4cccc5[nH]ncc45)nc(N4CCOCC4)c3s2)CC1 [Pictilisib]	> 100%
O=C(C1CC1)N1CC[C@@H](C=C2NNC(=O)N2c2ccc(-c3ccc4occc4c3)cc2)C1 + C[C@H](NC(=O)c1sccc1OCc1ccc(Cl)cc1)c1ccccc1 [as1949490]	> 100%
O=C(C1CC1)N1CC[C@@H](C=C2NNC(=O)N2c2ccc(-c3ccc4occc4c3)cc2)C1 + O=C(c1c2ccccc2cc2ccccc12)N1CCC(N2CCC[C@@H](C(=O)N3CCOCC3)C2)CC1 [CP-640186]	> 100%
CC(C)c1onc(-c2c(Cl)cccc2Cl)c1COc1ccc(/C=C/c2cccc(C(=O)O)c2)c(Cl)c1 [GW4064] + Cn1cc(-c2ccncc2)c(-c2ccc(OCc3ccc4ccccc4n3)cc2)n1 [PF-02545920]	> 100%

Same assay, conditions: drug1 concentration 10 nM; drug2 concentration 50 nM; 72 h

Structure (SMILES)	cell viability
O=C(C1CC1)N1CC[C@@H](C=C2NNC(=O)N2c2ccc(-c3ccc4occc4c3)cc2)C1 + CS(=O)(=O)N1CCN(Cc2cc3nc(-c4cccc5[nH]ncc45)nc(N4CCOCC4)c3s2)CC1 [Pictilisib]	> 100%
O=C(C1CC1)N1CC[C@@H](C=C2NNC(=O)N2c2ccc(-c3ccc4occc4c3)cc2)C1 + C[C@H](NC(=O)c1sccc1OCc1ccc(Cl)cc1)c1ccccc1 [as1949490]	> 100%
O=C(C1CC1)N1CC[C@@H](C=C2NNC(=O)N2c2ccc(-c3ccc4occc4c3)cc2)C1 + O=C(c1c2ccccc2cc2ccccc12)N1CCC(N2CCC[C@@H](C(=O)N3CCOCC3)C2)CC1 [CP-640186]	89.7%
CC(C)c1onc(-c2c(Cl)cccc2Cl)c1COc1ccc(/C=C/c2cccc(C(=O)O)c2)c(Cl)c1 [GW4064] + Cn1cc(-c2ccncc2)c(-c2ccc(OCc3ccc4ccccc4n3)cc2)n1 [PF-02545920]	> 100%

Same assay, conditions: drug1 concentration 10 nM; drug2 concentration 100 nM; 72 h

Structure (SMILES)	cell viability
O=C(C1CC1)N1CC[C@@H](C=C2NNC(=O)N2c2ccc(-c3ccc4occc4c3)cc2)C1 + CS(=O)(=O)N1CCN(Cc2cc3nc(-c4cccc5[nH]ncc45)nc(N4CCOCC4)c3s2)CC1 [Pictilisib]	75.5%
O=C(C1CC1)N1CC[C@@H](C=C2NNC(=O)N2c2ccc(-c3ccc4occc4c3)cc2)C1 + C[C@H](NC(=O)c1sccc1OCc1ccc(Cl)cc1)c1ccccc1 [as1949490]	96.4%
O=C(C1CC1)N1CC[C@@H](C=C2NNC(=O)N2c2ccc(-c3ccc4occc4c3)cc2)C1 + O=C(c1c2ccccc2cc2ccccc12)N1CCC(N2CCC[C@@H](C(=O)N3CCOCC3)C2)CC1 [CP-640186]	> 100%
CC(C)c1onc(-c2c(Cl)cccc2Cl)c1COc1ccc(/C=C/c2cccc(C(=O)O)c2)c(Cl)c1 [GW4064] + Cn1cc(-c2ccncc2)c(-c2ccc(OCc3ccc4ccccc4n3)cc2)n1 [PF-02545920]	90.5%

Same assay, conditions: drug1 concentration 10 nM; drug2 concentration 500 nM; 72 h

Structure (SMILES)	cell viability
O=C(C1CC1)N1CC[C@@H](C=C2NNC(=O)N2c2ccc(-c3ccc4occc4c3)cc2)C1 + CS(=O)(=O)N1CCN(Cc2cc3nc(-c4cccc5[nH]ncc45)nc(N4CCOCC4)c3s2)CC1 [Pictilisib]	83.9%
O=C(C1CC1)N1CC[C@@H](C=C2NNC(=O)N2c2ccc(-c3ccc4occc4c3)cc2)C1 + C[C@H](NC(=O)c1sccc1OCc1ccc(Cl)cc1)c1ccccc1 [as1949490]	78%
O=C(C1CC1)N1CC[C@@H](C=C2NNC(=O)N2c2ccc(-c3ccc4occc4c3)cc2)C1 + O=C(c1c2ccccc2cc2ccccc12)N1CCC(N2CCC[C@@H](C(=O)N3CCOCC3)C2)CC1 [CP-640186]	87%
CC(C)c1onc(-c2c(Cl)cccc2Cl)c1COc1ccc(/C=C/c2cccc(C(=O)O)c2)c(Cl)c1 [GW4064] + Cn1cc(-c2ccncc2)c(-c2ccc(OCc3ccc4ccccc4n3)cc2)n1 [PF-02545920]	69.3%

Same assay, conditions: drug1 concentration 10 nM; drug2 concentration 1000 nM; 72 h

Structure (SMILES)	cell viability
O=C(C1CC1)N1CC[C@@H](C=C2NNC(=O)N2c2ccc(-c3ccc4occc4c3)cc2)C1 + CS(=O)(=O)N1CCN(Cc2cc3nc(-c4cccc5[nH]ncc45)nc(N4CCOCC4)c3s2)CC1 [Pictilisib]	71%
